Measured values from ChEMBL document CHEMBL1201862, “PubChem BioAssay data set” (2004).
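Five concentrations, 48 hours, 96-well plates. Here, GI50 denotes the concentration required for 50% inhibition of growth.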 Activity calls are given as the source filed them. No stated cut-off is given here; in the data, active = GI50 up to about 1.1 µM and inactive = higher.

Assays:
Assay in all cases: inhibition of tumour cell growth, NCI panel, 48 h
[1] = tested on: KM12
[2] = tested on: OVCAR-4
[3] = tested on: UACC-62
[4] = tested on: SW-620
[5] = tested on: OVCAR-3
[6] = tested on: SN12C
[7] = tested on: RXF 393
[8] = tested on: SK-MEL-28
[9] = tested on: HCT-15
[10] = tested on: HOP-62
[11] = tested on: SF-539
[12] = tested on: HCT-116
[13] = tested on: A498
[14] = tested on: OVCAR-5
[15] = tested on: LOX IMVI
[16] = tested on: MCF7
[17] = tested on: A549
[18] = tested on: SNB-19
[19] = tested on: SK-OV-3
[20] = tested on: K562
[21] = tested on: HT-29
[22] = tested on: IGROV-1
[23] = tested on: SF-295
[24] = tested on: NCI-H226
[25] = tested on: SR
[26] = tested on: COLO 205
[27] = tested on: CCRF-CEM
[28] = tested on: MOLT-4
[29] = tested on: BT-549
[30] = tested on: ACHN
[31] = tested on: T47D
[32] = tested on: 786-0
[33] = tested on: UACC-257
[34] = tested on: CAKI-1
[35] = tested on: Hs-578T
[36] = tested on: OVCAR-8
[37] = tested on: NCI/ADR-RES
[38] = tested on: UO-31
[39] = tested on: HCC 2998
[40] = tested on: RPMI-8226
[41] = tested on: HL-60
[42] = tested on: HOP-92
[43] = tested on: NCI-H522
[44] = tested on: MDA-N
[45] = tested on: SF-268
[46] = tested on: NCI-H23
[47] = tested on: SK-MEL-5
[48] = tested on: NCI-H460
[49] = tested on: DU-145
[50] = tested on: MDA-MB-435
[51] = tested on: Malme-3M
[52] = tested on: M14
[53] = tested on: TK-10
[54] = tested on: EKVX
[55] = tested on: SK-MEL-2
[56] = tested on: SNB-75
[57] = tested on: U-251
[58] = tested on: MDA-MB-231
[59] = tested on: PC-3

O=C(OCC(OC(=O)c1ccccc1)C(OC(=O)c1ccccc1)C(OC(=O)c1ccccc1)c1cnn(-c2ccccc2)n1)c1ccccc1 (stereo not drawn)
GI50 [1]: > 100 µM (inactive)
GI50 [2]: > 100 µM (inactive)
GI50 [3]: > 100 µM (inactive)
GI50 [4]: > 100 µM (inactive)
GI50 [5]: > 100 µM (inactive)
GI50 [6]: > 100 µM (inactive)
GI50 [7]: > 100 µM (inactive)
GI50 [8]: > 100 µM (inactive)
GI50 [9]: > 100 µM
GI50 [10]: > 100 µM (inactive)
GI50 [11]: > 100 µM (inactive)
GI50 [12]: > 100 µM (inactive)
GI50 [13]: > 100 µM (inactive)
GI50 [14]: > 100 µM (inactive)
GI50 [15]: > 100 µM (inactive)
GI50 [16]: > 100 µM (inactive)
GI50 [17]: > 100 µM (inactive)
GI50 [18]: > 100 µM (inactive)
GI50 [19]: > 100 µM (inactive)
GI50 [20]: > 100 µM (inactive)
GI50 [21]: > 100 µM (inactive)
GI50 [22]: > 100 µM (inactive)
GI50 [23]: > 100 µM (inactive)
GI50 [24]: > 100 µM (inactive)
GI50 [25]: > 100 µM (inactive)
GI50 [26]: > 100 µM (inactive)
GI50 [27]: > 100 µM (inactive)
GI50 [28]: > 100 µM (inactive)
GI50 [29]: > 100 µM (inactive)
GI50 [30]: > 100 µM (inactive)
GI50 [31]: > 100 µM (inactive)
GI50 [32]: > 100 µM (inactive)
GI50 [33]: > 100 µM (inactive)
GI50 [34]: > 100 µM (inactive)
GI50 [35]: > 100 µM (inactive)
GI50 [36]: > 100 µM (inactive)
GI50 [37]: > 100 µM (inactive)
GI50 [38]: > 100 µM (inactive)
GI50 [39]: > 100 µM (inactive)
GI50 [40]: > 100 µM (inactive)
GI50 [41]: > 100 µM (inactive)
GI50 [42]: > 100 µM (inactive)
GI50 [43]: > 100 µM (inactive)
GI50 [44]: > 100 µM (inactive)
GI50 [45]: > 100 µM (inactive)
GI50 [46]: > 100 µM (inactive)
GI50 [47]: > 100 µM (inactive)
GI50 [48]: > 100 µM (inactive)
GI50 [49]: > 100 µM (inactive)
GI50 [50]: > 100 µM (inactive)
GI50 [51]: > 100 µM (inactive)
GI50 [52]: > 100 µM (inactive)
GI50 [53]: > 100 µM (inactive)
GI50 [54]: > 100 µM (inactive)

Oc1c(/N=N\c2ccccc2)c2cccc3ccc4cccc1c4c32
GI50 [1]: > 100 µM (inactive)
GI50 [2]: 43.2 µM (inactive)
GI50 [3]: > 100 µM (inactive)
GI50 [4]: > 100 µM (inactive)
GI50 [5]: > 100 µM (inactive)
GI50 [6]: > 100 µM (inactive)
GI50 [7]: > 100 µM (inactive)
GI50 [8]: > 100 µM (inactive)
GI50 [9]: > 100 µM
GI50 [10]: 29.6 µM (inactive)
GI50 [55]: > 100 µM (inactive)
GI50 [12]: > 100 µM (inactive)
GI50 [13]: > 100 µM (inactive)
GI50 [14]: > 100 µM (inactive)
GI50 [15]: > 100 µM (inactive)
GI50 [17]: > 100 µM (inactive)
GI50 [18]: > 100 µM (inactive)
GI50 [19]: > 100 µM (inactive)
GI50 [20]: > 100 µM (inactive)
GI50 [21]: > 100 µM (inactive)
GI50 [22]: > 100 µM (inactive)
GI50 [23]: 81.7 µM (inactive)
GI50 [24]: > 100 µM (inactive)
GI50 [25]: 20.9 µM (inactive)
GI50 [26]: > 100 µM (inactive)
GI50 [27]: > 100 µM (inactive)
GI50 [28]: > 100 µM (inactive)
GI50 [29]: > 100 µM (inactive)
GI50 [30]: 26.8 µM (inactive)
GI50 [56]: 38.6 µM (inactive)
GI50 [31]: > 100 µM (inactive)
GI50 [32]: 43.7 µM (inactive)
GI50 [33]: > 100 µM (inactive)
GI50 [34]: > 100 µM (inactive)
GI50 [35]: 33.7 µM (inactive)
GI50 [36]: 40.2 µM (inactive)
GI50 [37]: > 100 µM (inactive)
GI50 [38]: > 100 µM (inactive)
GI50 [57]: 42.7 µM (inactive)
GI50 [40]: > 100 µM (inactive)
GI50 [58]: 94.4 µM (inactive)
GI50 [42]: > 100 µM (inactive)
GI50 [43]: > 100 µM (inactive)
GI50 [44]: > 100 µM (inactive)
GI50 [59]: > 100 µM (inactive)
GI50 [45]: 45.9 µM (inactive)
GI50 [46]: > 100 µM (inactive)
GI50 [47]: > 100 µM (inactive)
GI50 [49]: > 100 µM (inactive)
GI50 [50]: > 100 µM (inactive)
GI50 [51]: > 100 µM (inactive)
GI50 [52]: > 100 µM (inactive)
GI50 [53]: > 100 µM (inactive)
GI50 [54]: > 100 µM (inactive)
